In the NIST ThermoML archive (doi:10.1021/acs.jced.6b01043):
Numbers after ± are expanded uncertainties.

Assay: relative permittivity at zero frequency (dimensionless); xn = mol fraction of the nth substance listed
Conditions: Gas, Reentrant cavity resonator

[Ar] [argon] + O=C=O
relative permittivity at zero frequency (255.1 K, 2068.9 kPa, x1 = 0.0505): 1.02661 ± 0.00055
relative permittivity at zero frequency (260.14 K, 2446.9 kPa, x1 = 0.0505): 1.03197 ± 0.00056
relative permittivity at zero frequency (266.15 K, 2919.5 kPa, x1 = 0.0505): 1.03887 ± 0.00056
relative permittivity at zero frequency (271.4 K, 3365.6 kPa, x1 = 0.0505): 1.04566 ± 0.00056
relative permittivity at zero frequency (273.2 K, 454.8 kPa, x1 = 0.2491): 1.004 ± 0.0004
relative permittivity at zero frequency (273.2 K, 962.7 kPa, x1 = 0.2491): 1.0088 ± 0.0004
relative permittivity at zero frequency (273.2 K, 1001.6 kPa, x1 = 0.2491): 1.0091 ± 0.0004
relative permittivity at zero frequency (273.2 K, 2004.3 kPa, x1 = 0.2491): 1.0195 ± 0.0004
relative permittivity at zero frequency (273.2 K, 2014.8 kPa, x1 = 0.2491): 1.0196 ± 0.0004
relative permittivity at zero frequency (273.2 K, 3008.7 kPa, x1 = 0.2491): 1.0314 ± 0.0004
relative permittivity at zero frequency (273.2 K, 4029 kPa, x1 = 0.2491): 1.0459 ± 0.0004
relative permittivity at zero frequency (273.2 K, 4487 kPa, x1 = 0.2491): 1.0535 ± 0.0004
relative permittivity at zero frequency (273.21 K, 506.6 kPa, x1 = 0.2491): 1.0045 ± 0.0004
relative permittivity at zero frequency (279.73 K, 4266.1 kPa, x1 = 0.0505): 1.06129 ± 0.00057
relative permittivity at zero frequency (279.73 K, 4267.8 kPa, x1 = 0.0505): 1.06132 ± 0.00057
relative permittivity at zero frequency (283.23 K, 492.8 kPa, x1 = 0.2491): 1.0042 ± 0.0004
relative permittivity at zero frequency (283.23 K, 969.4 kPa, x1 = 0.0505): 1.00945 ± 0.00055
relative permittivity at zero frequency (283.23 K, 4007.7 kPa, x1 = 0.0505): 1.05273 ± 0.00057
relative permittivity at zero frequency (283.23 K, 4493.9 kPa, x1 = 0.0505): 1.06407 ± 0.00057
relative permittivity at zero frequency (283.23 K, 6491.3 kPa, x1 = 0.2491): 1.0858 ± 0.0004
relative permittivity at zero frequency (283.24 K, 1029.9 kPa, x1 = 0.0505): 1.01008 ± 0.00055
relative permittivity at zero frequency (283.24 K, 2002 kPa, x1 = 0.2491): 1.0185 ± 0.0004
relative permittivity at zero frequency (283.24 K, 2006.1 kPa, x1 = 0.0505): 1.0212 ± 0.00055
relative permittivity at zero frequency (283.24 K, 2011.5 kPa, x1 = 0.0505): 1.02127 ± 0.00055
relative permittivity at zero frequency (283.24 K, 2992.8 kPa, x1 = 0.2491): 1.0294 ± 0.0004
relative permittivity at zero frequency (283.24 K, 2993.3 kPa, x1 = 0.2491): 1.0294 ± 0.0004
relative permittivity at zero frequency (283.24 K, 2998.2 kPa, x1 = 0.0505): 1.03482 ± 0.00056
relative permittivity at zero frequency (283.24 K, 3973.7 kPa, x1 = 0.0505): 1.05203 ± 0.00057
relative permittivity at zero frequency (283.24 K, 3995.6 kPa, x1 = 0.2491): 1.042 ± 0.0004
relative permittivity at zero frequency (283.24 K, 4006.4 kPa, x1 = 0.2491): 1.0421 ± 0.0004
relative permittivity at zero frequency (283.24 K, 4991.8 kPa, x1 = 0.2491): 1.0568 ± 0.0004
relative permittivity at zero frequency (283.24 K, 5983.5 kPa, x1 = 0.2491): 1.0748 ± 0.0004
relative permittivity at zero frequency (283.24 K, 5987 kPa, x1 = 0.2491): 1.0749 ± 0.0004
relative permittivity at zero frequency (283.25 K, 1008.9 kPa, x1 = 0.2491): 1.0088 ± 0.0004
relative permittivity at zero frequency (283.25 K, 2012.2 kPa, x1 = 0.2491): 1.0186 ± 0.0004
relative permittivity at zero frequency (283.44 K, 4710.8 kPa, x1 = 0.0505): 1.06985 ± 0.00058
relative permittivity at zero frequency (289.87 K, 5632 kPa, x1 = 0.0505): 1.09119 ± 0.00059
relative permittivity at zero frequency (292.67 K, 6086.3 kPa, x1 = 0.0505): 1.10382 ± 0.0006
relative permittivity at zero frequency (293.27 K, 1007.1 kPa, x1 = 0.2491): 1.0085 ± 0.0004
relative permittivity at zero frequency (293.27 K, 2005.7 kPa, x1 = 0.2491): 1.0177 ± 0.0004
relative permittivity at zero frequency (293.27 K, 3006.2 kPa, x1 = 0.2491): 1.0279 ± 0.0004
relative permittivity at zero frequency (293.27 K, 4006.6 kPa, x1 = 0.2491): 1.0394 ± 0.0004
relative permittivity at zero frequency (293.27 K, 4993.4 kPa, x1 = 0.2491): 1.0523 ± 0.0004
relative permittivity at zero frequency (293.27 K, 5847.6 kPa, x1 = 0.2491): 1.0651 ± 0.0004
relative permittivity at zero frequency (293.27 K, 6499.2 kPa, x1 = 0.2491): 1.0761 ± 0.0004
relative permittivity at zero frequency (293.28 K, 3999.6 kPa, x1 = 0.2491): 1.0393 ± 0.0004
relative permittivity at zero frequency (293.28 K, 5994.6 kPa, x1 = 0.2491): 1.0674 ± 0.0004
relative permittivity at zero frequency (294.27 K, 6419.2 kPa, x1 = 0.0505): 1.11591 ± 0.0006
relative permittivity at zero frequency (313.26 K, 2602.6 kPa, x1 = 0.0505): 1.02461 ± 0.00055
relative permittivity at zero frequency (313.26 K, 3052 kPa, x1 = 0.0505): 1.02963 ± 0.00056
relative permittivity at zero frequency (313.26 K, 3592.1 kPa, x1 = 0.0505): 1.03607 ± 0.00056
relative permittivity at zero frequency (313.28 K, 7083.6 kPa, x1 = 0.0505): 1.0967 ± 0.00059
relative permittivity at zero frequency (313.29 K, 4089.6 kPa, x1 = 0.0505): 1.04247 ± 0.00056
relative permittivity at zero frequency (313.3 K, 4550.7 kPa, x1 = 0.0505): 1.04884 ± 0.00057
relative permittivity at zero frequency (313.3 K, 5083 kPa, x1 = 0.0505): 1.05688 ± 0.00057
relative permittivity at zero frequency (313.3 K, 5566.4 kPa, x1 = 0.0505): 1.06488 ± 0.00058
relative permittivity at zero frequency (313.3 K, 6028.4 kPa, x1 = 0.0505): 1.07333 ± 0.00058
relative permittivity at zero frequency (313.3 K, 6550 kPa, x1 = 0.0505): 1.08408 ± 0.00059
relative permittivity at zero frequency (313.3 K, 7027.1 kPa, x1 = 0.0505): 1.09523 ± 0.00059
